Assay results published in paper PMC11728001, “Design, Synthesis, and Biological Evaluation of Novel Urea-Containing Carnosic Acid Derivatives with Anticancer Activity” (International Journal of Molecular Sciences, 2024).

Experiments:
Type in all cases: cell-based
SW480 cells [1] = test: MTT cell viability assay, SW480; conditions: Homo sapiens, 72 h incubation, mean ± SD
Description: (§1) The effect of the compounds on cell viability was evaluated using the MTT assay. HCT116 (3000 cells/well), SW620 (8000 cells/well), SW480 (6000 cells/well), Caco-2 (4000 cells/well), A375 (1500 cells/well), MiaPaca-2 (2000 cells/well), and BJ (10,000 cells/well) cells were seeded in 96-well plates. After 24 h, the growth medium was replaced with a fresh medium containing the desired concentration of the compound or DMSO (control). After 72 h of incubation, the supernatant was removed and 100 µL of a mixture (1:1) of filtered MTT solution (1 mg/mL in PBS) with FBS-free medium was added to each well. After 1 h of incubation at 37 °C, the mixture was removed and 100 µL of DMSO was added to each well to dissolve the formed formazan crystals. Absorbance was immediately measured at 570 nm using a Benchmark Plus Microplate Reader (Bio-Rad Laboratories, Hercules, CA, USA). IC50 values were calculated using GraphPad Prism 9 software (GraphPad Software, San Diego, CA, USA) and expressed as the mean ± standard deviation (SD) of at least three independent experiments.

SW620 cells = test: MTT cell viability assay, SW620; conditions: Homo sapiens, SW-620, 72 h incubation, mean ± SD
Description: as §1

Caco-2 cells = test: MTT cell viability assay, Caco-2; conditions: Homo sapiens, 72 h incubation, mean ± SD
Description: as §1

A375 melanoma cells = test: MTT cell viability assay, A375; conditions: Homo sapiens, A-375, 72 h incubation, mean ± SD
Description: as §1

[2] = test system: MiaPaca-2 pancreatic cancer cells; test: MTT cell viability assay, MiaPaca-2; conditions: Homo sapiens, MIA PaCa-2, 72 h incubation, mean ± SD
Description: as §1

SW480 cells [3] = test: Cell proliferation assay and cell doubling time; conditions: SW480 cells treated at IC50 concentration; control 42 h
Description: SW480 cells were seeded at a concentration of 1.68 × 10^5 cells per well in 6-well plates and incubated at 37 °C. […] Prior to treatment initiation (0 h), cells were trypsinized, washed with DPBS, and collected by centrifugation. The collected cells were resuspended in DPBS containing trypan blue and examined using an Invitrogen Countess 3 Automated Cell Counter (Thermo Fisher Scientific, Waltham, MA, USA) to determine the cell number and viability. This procedure was replicated at various treatment time points (24, 48, and 72 h) to generate a cell proliferation curve depicting the changes over time. Cell doubling time was calculated by dividing the natural logarithm of 2 by the growth rate.

CDK4 = test: Western blot, CDK4 expression in SW480 cells; conditions: SW480, IC50 concentration, 24 and 72 h
Description: (§2) SW480 cells (1.68 × 10^5 cells/well) were seeded in 6-well plates and incubated at 37 °C for 24 h. […] At the end of the treatment period, cells were washed twice with ice-cold DPBS and incubated for 30 min. at 4 °C with lysis buffer containing 20 mM Tris-HCl (pH 7.5), 1 mM DTT, 0.2% Triton X-100, 1 mM Na-EDTA, 0.5 mM sodium deoxycholate, 1% proteases inhibitor cocktail, and 0.5% phosphatases inhibitor cocktail. The cells were scraped, sonicated, and centrifuged at 12,000× g for 20 min. at 4 °C. The supernatants were recovered, and the protein concentration was quantified using Pierce^TM BCA protein assay reagents A and B and Pierce^TM bovine serum albumin standard ampules (2 mg/mL).
(§3) Membranes were blocked with 5% skim milk in PBS-Tween-20 (0.1%) for 1 h at room temperature, following its incubation with the specific primary antibodies overnight at 4 °C (CDK4, CDK6, and SOD2 (MnSOD)). Exceptionally, the primary antibody against actin was only incubated for 30 min. at room temperature. The membranes were then washed with PBS-Tween-20 (0.1%) and incubated for 40 min. with an anti-mouse secondary antibody or for 1 h with an anti-rabbit secondary antibody. After incubation, the membranes were washed again with PBS-Tween-20 (0.1%) and treated with the Immobilon Western Chemiluminescent HRP Substrate Kit. […]

CDK6 = test: Western blot, CDK6 expression in SW480 cells; conditions: SW480, IC50 concentration, 24, 48 and 72 h
Description: as §2, §3

[4] = test system: intracellular ROS in SW480 cells; test: ROS determination assay (H2DCFDA, flow cytometry); conditions: SW480, IC50 concentration
Description: Intracellular ROS levels were assessed by flow cytometry using H2DCFDA probe. SW480 cells were cultured in 6-well plates and treated according to the procedure described for the apoptosis assay. After incubation for 24, 48, and 72 h, adherent cells were collected by centrifugation after trypsinization and washed with DPBS. The cells were then incubated with 1 mL HBSS containing 2 mM L-glutamine and 50 µM H2DCFDA probe at 37 °C for 45 min. in a cell culture incubator. Next, the cellular suspension was washed with 2 mL of DPBS and the cells were collected by centrifugation. Finally, the cells were gently resuspended in 350 µL DPBS containing 20 µg/mL PI solution (1 mg/mL). The intracellular internalized probe reacts with ROS and undergoes transformation into 2′,7′-dichlorofluorescein (DCF). DCF fluorescence data were collected from 1 × 10^4 PI-negative cells by using a Gallios flow cytometer (Beckman Coulter, Brea, CA, USA) at 520 nm.

SOD2 (MnSOD) = test: Western blot, SOD2 (MnSOD) expression in SW480 cells; conditions: SW480, IC50 concentration, 24, 48 and 72 h
Description: as §2, §3

CC(=O)Oc1c(C(C)C)cc2c(c1OC(C)=O)[C@@]1(NC(=O)NCCc3cccc(Cl)c3)CCCC(C)(C)[C@@H]1CC2 [Compound 14, (4bR,8aS)-4b-(3-(3-chlorophenethyl)ureido)-2-isopropyl-8,8-dimethyl-4b,5,6,7,8,8a,9,10-octahydrophenanthrene-3,4-diyl diacetate]
IC50 (SW480 cells [1]): 6.1 ± 0.3 µM
IC50 (SW620 cells): 6.1 ± 0.3 µM
IC50 (Caco-2 cells): 8 ± 0.5 µM
IC50 (A375 melanoma cells): 7 ± 0.4 µM
IC50 [2]: 9 ± 0.8 µM
cell doubling time (SW480 cells [3]): 70 h
CDK4 expression versus untreated cells (CDK4): downregulation
CDK6 expression versus untreated cells (CDK6): downregulation
percentage of intracellular ROS compared with control ([4]; 24 h): 56%
percentage of intracellular ROS compared with control ([4]; 48 h): 71%
change in ROS levels ([4]; 72 h): no significant changes
expression of SOD2 (MnSOD) (SOD2 (MnSOD)): no significant changes
